# PubChem BioAssay AID1918947 (Molecular Pharmacology Branch, DTP, NCI, 2023)
# Several values for one entry are separate records, joined by “and”; a condition that tells them apart may be missing. Equal entries are not always repeated.
# System: A498 complex spheroid viability
# Test: Anticancer human tumor A498 cell line growth inhibition;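 further: spheroids exposed to agents for seven days before readout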;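 on viability, T/C: 100% = DMSO vehicle-treated spheroids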
# Settings: for viability, T/C: stronger effect = lower value
# From the text: Multicellular complex tumor spheroid response to LSD1 Inhibitor Iadademstat in combination with a variety of drugs and investigational agents in selected tumor cell lines
# The current study was undertaken to assess response to LSD1 inhibitors in combination with standard-of-care drugs and investigational agents in solid tumor complex spheroid models as well as in the K-562 leukemia. Complex spheroids include a stromal component modeled by human endothelial cells (HUVEC) and fibroblasts modeled by human mesenchymal stem cells (MSCs). The concentration ranges selected for each drug and investigational agent were based upon clinically achievable concentrations if the clinical Cmax of the agent was known.
# Compounds. The drugs and investigational agents used in this study are listed on Table 1. All of the agents used, including staurosporine (NSC755774) and gemcitabine (NSC613327), were obtained from the Developmental Therapeutics Program, NCI. FDA-approved anticancer drugs are available from the NCI at http://dtp.nci.nih.gov/branches/dscb/oncology_drugset_explanation.html. Drugs and investigational agents were >95% pure by proton nuclear magnetic resonance (NMR) and liquid chromatography/mass spectrometry (LC/MS). Stock solutions were prepared at 400x in DMSO, stored at -70 degrees C, and diluted in fresh medium prior to their use. The final concentration of DMSO in cell culture wells never exceeded 0.25% (v/v). The FDA-approved anticancer drug set is available from the Developmental Therapeutics Program at https://dtp.cancer.gov/organization/dscb/obtaining/available_plates.htm. All drugs and investigational agents were tested over a range starting from a high concentration at or near the clinical Cmax and decreasing in half-log increments. If the clinical Cmax for an agent had not been determined, the highest concentration tested was 10 microM.
# Cell Lines. The patient-derived cancer cell (PDC) lines: 292921-168-R-J2-PDC, K24384-001-R-PDC, and 521955-158-R2-J5-PDC pancreatic carcinomas, 556581-035-R-J1 ovarian carcinoma, 324938-238-R-J1-PDC, 855422-203-R-J1-PDC and 883617-216-R-J1-PDC urothelial bladder carcinomas, 743489-274-T-PDC renal cell carcinoma, 138582-R-J1 Merkel cell tumor, K60290-347-R-J1 and K57222-313-R-J1-PDC glioblastomas, 653999-131-R-J2-PDC, LG0703-F948-PDC, and 349418-098-R-PDC non-small cell lung carcinomas, 885512-296-R-J2-PDC, 171881-019-R-J1-PDC breast carcinomas and 186277-243-T-J2-PDC and 233499-124-R-J2-PDC colon carcinomas were obtained from the NCI Patient-Derived Models Repository (PDMR, https://pdmr.cancer.gov). The established cell lines NCI/ADR-RES (RRID:CVCL_14520 and OVCAR-5 (RRID:CVCL_1628) ovarian carcinomas, 786-O (RRID:CVCL_1051) and A498 (RRID:CVCL_A498) renal cell carcinoma, NCI-H211 (ATCC, cat. CRL-5824; RRID:CVCL_1529), NCI-H196 (ATCC, cat. CRL-5823, RRID:CVCL_1509), SW 1271 (ATCC, cat. CRL-2177, RRID:CVCL_1716) and NCI-H1876 (ATCC, cat. CRL-5902, RRID:CVCL_1503) small cell lung carcinomas, MDA-MB-231 (RRID:CVCL_0062) and MDA-MB-468 (RRID:CVCL_0419)breast carcinomas (10-12). Pooled donor human umbilical vein endothelial cells (HUVEC, Lonza, cat. CC-2519) and human mesenchymal stem cells (hMSC, Lonza, cat. PT-2501) were purchased from Lonza (Walkersville, MD).
# Cell Culture. All cells were maintained in an incubator at 37 degrees C and 5% CO2 with 95% humidity. The PDC lines were cultured according to standard operating procedures established by the NCI PDMR (https://pdmr.cancer.gov). Briefly all PDCs were thawed and cultured in Matrigel-coated flasks prepared with a working solution of 1X Ham's F-12 nutrient mix, without supplementation (Invitrogen, Waltham, MA, cat. 11765054), 100 U/mL penicillin-streptomycin (Invitrogen, cat. 15140122), and 2.5% Matrigel (Corning Inc., Corning, NY, cat. 354248) for the first three passages. […]
# [1] = curve of first compound, second compound 0.1 µM
# [2] = curve of first compound, second compound 0.316 µM
# [3] = curve of first compound, second compound 1 µM
# [4] = curve of first compound, second compound 3.16 µM
# [5] = curve of first compound, second compound 10 µM
# [6] = second compound 0.1 µM, first compound 0.00316 µM
# [7] = second compound 0.1 µM, first compound 0.01 µM
# [8] = second compound 0.1 µM, first compound 0.0316 µM
# [9] = second compound 0.1 µM, first compound 0.1 µM
# [10] = second compound 0.316 µM, first compound 0.00316 µM
# [11] = second compound 0.316 µM, first compound 0.01 µM
# [12] = second compound 0.316 µM, first compound 0.0316 µM
# [13] = second compound 0.316 µM, first compound 0.1 µM
# [14] = second compound 1 µM, first compound 0.00316 µM
# [15] = second compound 1 µM, first compound 0.01 µM
# [16] = second compound 1 µM, first compound 0.0316 µM
# [17] = second compound 1 µM, first compound 0.1 µM
# [18] = second compound 3.16 µM, first compound 0.00316 µM
# [19] = second compound 3.16 µM, first compound 0.01 µM
# [20] = second compound 3.16 µM, first compound 0.0316 µM
# [21] = second compound 3.16 µM, first compound 0.1 µM
# [22] = second compound 10 µM, first compound 0.00316 µM
# [23] = second compound 10 µM, first compound 0.01 µM
# [24] = second compound 10 µM, first compound 0.0316 µM
# [25] = second compound 10 µM, first compound 0.1 µM
# [26] = second compound 0.1 µM, first compound 0.316 µM
# [27] = second compound 0.1 µM, first compound 1 µM
# [28] = second compound 0.1 µM, first compound 3.16 µM
# [29] = second compound 0.1 µM, first compound 10 µM
# [30] = second compound 0.316 µM, first compound 0.316 µM
# [31] = second compound 0.316 µM, first compound 1 µM
# [32] = second compound 0.316 µM, first compound 3.16 µM
# [33] = second compound 0.316 µM, first compound 10 µM
# [34] = second compound 1 µM, first compound 0.316 µM
# [35] = second compound 1 µM, first compound 1 µM
# [36] = second compound 1 µM, first compound 3.16 µM
# [37] = second compound 1 µM, first compound 10 µM
# [38] = second compound 3.16 µM, first compound 0.316 µM
# [39] = second compound 3.16 µM, first compound 1 µM
# [40] = second compound 3.16 µM, first compound 3.16 µM
# [41] = second compound 3.16 µM, first compound 10 µM
# [42] = second compound 10 µM, first compound 0.316 µM
# [43] = second compound 10 µM, first compound 1 µM
# [44] = second compound 10 µM, first compound 3.16 µM
# [45] = second compound 10 µM, first compound 10 µM
Compound,IC50 [1],IC50 [2],IC50 [3],IC50 [4],IC50 [5],"viability, T/C [8]","viability, T/C [9]","viability, T/C [12]","viability, T/C [13]","viability, T/C [16]","viability, T/C [17]","viability, T/C [20]","viability, T/C [21]","viability, T/C [24]","viability, T/C [25]","viability, T/C [26]","viability, T/C [27]","viability, T/C [30]","viability, T/C [31]","viability, T/C [34]",also measured
CC(C)CC(NC(=O)CNC(=O)c1cc(Cl)ccc1Cl)B1OC(=O)CC(CC(=O)O)(C(=O)O)O1 (configuration not stated) + NC1CCC(NC2CC2c2ccccc2)CC1,4.58 nM,4.93 nM,4.56 nM,4.16 nM,2.95 nM,4.94%,3.27%,5.43%,2.63%,3.18%,1.44%,2.6%,0.83%,1.59%,0.69%,–,–,–,–,–,"viability, T/C (second compound 0.1 µM, first compound 0.000316 µM): 86.6%; viability, T/C (second compound 0.1 µM, first compound 0.001 µM): 91.6%; viability, T/C [6]: 64.4%; viability, T/C [7]: 18.1%; viability, T/C (second compound 0.316 µM, first compound 0.000316 µM): 94.3%; viability, T/C (second compound 0.316 µM, first compound 0.001 µM): 102%; viability, T/C [10]: 72%; viability, T/C [11]: 14.6%; viability, T/C (second compound 1 µM, first compound 0.000316 µM): 87.7%; viability, T/C (second compound 1 µM, first compound 0.001 µM): 96.5%; viability, T/C [14]: 65.5%; viability, T/C [15]: 15.4%; viability, T/C (second compound 3.16 µM, first compound 0.000316 µM): 84.3%; viability, T/C (second compound 3.16 µM, first compound 0.001 µM): 91.2%; viability, T/C [18]: 62.4%; viability, T/C [19]: 9.48%; viability, T/C (second compound 10 µM, first compound 0.000316 µM): 74.9%; viability, T/C (second compound 10 µM, first compound 0.001 µM): 83.3%; viability, T/C [22]: 47.5%; viability, T/C [23]: 7.21%"
CC1(C)CCC(CN2CCN(c3ccc(C(=O)NS(=O)(=O)c4ccc(NCC5CCOCC5)c([N+](=O)[O-])c4)c(Oc4cnc5[nH]ccc5c4)c3)CC2)=C(c2ccc(Cl)cc2)C1 + NC1CCC(NC2CC2c2ccccc2)CC1,3670 nM,3890 nM,3470 nM,2710 nM,1970 nM,87.7%,89.2%,87.2%,92.6%,84.5%,86.2%,82.5%,85.5%,81.1%,75.2%,85.5%,76.4%,91.3%,79.1%,85.1%,"viability, T/C [28]: 57.5%; viability, T/C [29]: 3.91%; viability, T/C [32]: 60.7%; viability, T/C [33]: 4.52%; viability, T/C [35]: 76.9%; viability, T/C [36]: 54.3%; viability, T/C [37]: 3.45%; viability, T/C [38]: 80%; viability, T/C [39]: 70.2%; viability, T/C [40]: 47%; viability, T/C [41]: 3.58%; viability, T/C [42]: 76.5%; viability, T/C [43]: 65.2%; viability, T/C [44]: 39.2%; viability, T/C [45]: 2.98%"
Nc1ncn(C2CC(O)C(CO)O2)c(=O)n1 (configuration not stated) + NC1CCC(NC2CC2c2ccccc2)CC1,177 nM,279 nM,218 nM,195 nM,224 nM,88.5%,60.7%,90.7%,72.9%,89.2%,62.4%,78.4%,66.6%,79.9%,68.4%,40%,36.7%,47.3%,40.5%,46.4%,"viability, T/C [6]: 89.7%; viability, T/C [7]: 88.5%; viability, T/C [10]: 93.1%; viability, T/C [11]: 95.7%; viability, T/C [14]: 89.2%; viability, T/C [15]: 89.7%; viability, T/C [35]: 34.9%; viability, T/C [18]: 82.5%; viability, T/C [19]: 88.4%; viability, T/C [38]: 38.1%; viability, T/C [39]: 29.3%; viability, T/C [22]: 78%; viability, T/C [23]: 78.2%; viability, T/C [42]: 42.2%; viability, T/C [43]: 31.9%"
CC1COCCN1c1cc(C2(S(C)(=N)=O)CC2)nc(-c2ccnc3[nH]ccc23)n1 (configuration not stated) + NC1CCC(NC2CC2c2ccccc2)CC1,648 nM,784 nM,677 nM,590 nM,507 nM,91.8%,89%,99%,96.9%,86.8%,94%,81.3%,85.6%,76.6%,75.9%,70.7%,37.2%,82.8%,40.6%,72.4%,"viability, T/C [28]: 18.2%; viability, T/C [29]: 12%; viability, T/C [32]: 18.9%; viability, T/C [33]: 11.2%; viability, T/C [35]: 37.6%; viability, T/C [36]: 19.6%; viability, T/C [37]: 11.4%; viability, T/C [38]: 69.7%; viability, T/C [39]: 32.7%; viability, T/C [40]: 17.6%; viability, T/C [41]: 12.3%; viability, T/C [42]: 60.8%; viability, T/C [43]: 33.9%; viability, T/C [44]: 17.9%; viability, T/C [45]: 12.8%"
Nc1ncn(C2CC(O)C(CO)O2)c(=O)n1 (configuration not stated),–,–,–,–,–,–,–,–,–,–,–,–,–,–,–,–,–,–,–,–,"viability, T/C (compound 0.00316 µM): 104% and 103%; viability, T/C (compound 0.01 µM): 103% and 107%; viability, T/C (compound 0.0316 µM): 97.1% and 92.8%; viability, T/C (compound 0.1 µM): 84.8% and 88.6%; viability, T/C (compound 0.316 µM): 68.6% and 82.9%; viability, T/C (compound 1 µM): 52.9% and 73.7%; IC50 (curve of compound): > 1000 nM"
